{
  "source": "paper PMC9150124",
  "about": "“Design of a Potent, Selective, and Brain-Penetrant Inhibitor of Wnt-Deactivating Enzyme Notum by Optimization of a Crystallographic Fragment Hit” (Journal of Medicinal Chemistry, 2022)",
  "experiment_in_all_cases": "SelectScreen kinase profiling, SSBK ZLyte SP Technology",
  "type_in_all_cases": "biochemical",
  "key": {"[1]": {"target": "kinase named in conditions (Homo sapiens, UniProt O00506)", "settings": "STK25 (YSK1), 10 μM", "method": "(§1) Kinase selectivity screening was performed by Thermo Fisher Scientific (Paisley, U.K.) in their SelectScreen Biochemical Kinase Profiling Service. Assay information and data are presented in the Supporting Information.\n(§2) Kinase selectivity screening was performed by ThermoFisher Scientific (Paisley, U.K.) in their SelectScreenTM\n(§3) Biochemical Kinase Profiling service ."}, "[2]": {"target": "kinase named in conditions (Homo sapiens, UniProt O75676)", "settings": "RPS6KA4 (MSK2), 10 μM", "method": "as §1, §2, §3"}, "[3]": {"target": "kinase named in conditions (Homo sapiens, UniProt O76039)", "sequence (O76039 whole entry)": "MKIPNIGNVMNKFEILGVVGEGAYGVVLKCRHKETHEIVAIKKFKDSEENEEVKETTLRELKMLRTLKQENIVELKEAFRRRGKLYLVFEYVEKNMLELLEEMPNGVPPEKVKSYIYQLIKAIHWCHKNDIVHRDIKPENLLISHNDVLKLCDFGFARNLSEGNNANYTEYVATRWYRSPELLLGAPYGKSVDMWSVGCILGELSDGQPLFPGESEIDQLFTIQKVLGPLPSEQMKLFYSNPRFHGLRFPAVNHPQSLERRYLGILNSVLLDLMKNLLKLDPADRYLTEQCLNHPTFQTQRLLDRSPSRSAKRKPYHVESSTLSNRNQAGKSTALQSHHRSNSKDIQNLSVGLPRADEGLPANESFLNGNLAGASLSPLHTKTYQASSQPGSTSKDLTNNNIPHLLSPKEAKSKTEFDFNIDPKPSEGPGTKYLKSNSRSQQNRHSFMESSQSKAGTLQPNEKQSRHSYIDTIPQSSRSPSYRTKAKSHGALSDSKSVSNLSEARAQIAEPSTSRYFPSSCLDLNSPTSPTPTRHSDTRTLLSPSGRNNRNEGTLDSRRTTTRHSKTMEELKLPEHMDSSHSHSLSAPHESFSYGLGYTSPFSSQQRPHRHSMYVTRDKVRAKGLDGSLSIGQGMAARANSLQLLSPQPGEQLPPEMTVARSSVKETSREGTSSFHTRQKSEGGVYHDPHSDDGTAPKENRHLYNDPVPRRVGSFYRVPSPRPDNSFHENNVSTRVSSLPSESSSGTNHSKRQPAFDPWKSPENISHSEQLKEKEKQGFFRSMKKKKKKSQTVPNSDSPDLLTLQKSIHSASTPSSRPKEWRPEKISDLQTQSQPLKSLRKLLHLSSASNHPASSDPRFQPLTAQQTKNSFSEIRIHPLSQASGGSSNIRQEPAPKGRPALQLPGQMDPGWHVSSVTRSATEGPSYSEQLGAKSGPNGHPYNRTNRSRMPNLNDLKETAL", "settings": "CDKL5, 10 μM", "method": "as §1, §2, §3"}, "[4]": {"target": "kinase named in conditions (Homo sapiens, UniProt O95819)", "settings": "MAP4K4 (HGK), 10 μM", "method": "as §1, §2, §3"}, "[5]": {"target": "kinase named in conditions (Homo sapiens, UniProt P00519, Y253F)", "settings": "ABL1 Y253F, 10 μM", "method": "as §1, §2, §3"}, "[6]": {"target": "kinase named in conditions (Homo sapiens, UniProt P00533, G719C)", "sequence (P00533 25-1210 G719C)": "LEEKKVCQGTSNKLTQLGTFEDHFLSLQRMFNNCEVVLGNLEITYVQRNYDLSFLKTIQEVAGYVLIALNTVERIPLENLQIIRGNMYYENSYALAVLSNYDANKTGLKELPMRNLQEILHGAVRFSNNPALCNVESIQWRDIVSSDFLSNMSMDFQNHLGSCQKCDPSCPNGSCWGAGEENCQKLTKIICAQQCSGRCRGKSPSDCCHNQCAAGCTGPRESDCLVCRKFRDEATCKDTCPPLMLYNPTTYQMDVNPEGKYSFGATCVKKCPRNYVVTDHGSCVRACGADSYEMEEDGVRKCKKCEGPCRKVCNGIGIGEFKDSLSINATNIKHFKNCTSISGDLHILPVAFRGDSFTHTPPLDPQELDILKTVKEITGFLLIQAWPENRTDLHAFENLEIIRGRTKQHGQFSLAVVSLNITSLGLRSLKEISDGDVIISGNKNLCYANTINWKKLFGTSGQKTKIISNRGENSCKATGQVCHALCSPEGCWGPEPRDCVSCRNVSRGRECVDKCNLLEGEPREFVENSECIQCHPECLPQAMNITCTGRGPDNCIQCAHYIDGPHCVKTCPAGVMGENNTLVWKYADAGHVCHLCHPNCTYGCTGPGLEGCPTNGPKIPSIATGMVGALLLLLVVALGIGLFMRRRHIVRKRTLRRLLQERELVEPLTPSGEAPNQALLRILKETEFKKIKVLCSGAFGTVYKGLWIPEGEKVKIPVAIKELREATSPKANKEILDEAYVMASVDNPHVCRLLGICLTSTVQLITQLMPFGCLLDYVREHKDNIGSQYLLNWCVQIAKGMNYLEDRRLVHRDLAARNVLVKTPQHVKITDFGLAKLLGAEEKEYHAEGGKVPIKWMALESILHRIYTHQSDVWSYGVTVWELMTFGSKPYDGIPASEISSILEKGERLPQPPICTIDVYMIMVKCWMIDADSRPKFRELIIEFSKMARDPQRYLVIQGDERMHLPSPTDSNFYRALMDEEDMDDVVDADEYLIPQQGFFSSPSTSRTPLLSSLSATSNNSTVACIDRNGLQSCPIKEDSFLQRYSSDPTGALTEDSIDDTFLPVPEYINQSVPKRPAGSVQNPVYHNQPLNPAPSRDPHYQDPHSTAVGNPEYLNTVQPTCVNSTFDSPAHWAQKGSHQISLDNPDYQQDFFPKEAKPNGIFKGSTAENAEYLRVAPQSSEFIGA", "settings": "EGFR (ErbB1) G719C, 10 μM", "method": "as §1, §2, §3"}, "[7]": {"target": "kinase named in conditions (Homo sapiens, UniProt P00533, L858R)", "settings": "EGFR (ErbB1) L858R, 10 μM", "method": "as §1, §2, §3"}, "[8]": {"target": "kinase named in conditions (Homo sapiens, UniProt P04626)", "settings": "ERBB2 (HER2), 10 μM", "method": "as §1, §2, §3"}, "[9]": {"target": "kinase named in conditions (Homo sapiens, UniProt P07949, A883F)", "settings": "RET A883F, 10 μM", "method": "as §1, §2, §3"}, "[10]": {"target": "kinase named in conditions (Homo sapiens, UniProt P11362)", "settings": "FGFR1, 10 μM", "method": "as §1, §2, §3"}, "[11]": {"target": "kinase named in conditions (Homo sapiens, UniProt P16234, T674I)", "settings": "PDGFRA T674I, 10 μM", "method": "as §1, §2, §3"}, "[12]": {"target": "kinase named in conditions (Homo sapiens, UniProt P21709)", "sequence (P21709 26-976)": "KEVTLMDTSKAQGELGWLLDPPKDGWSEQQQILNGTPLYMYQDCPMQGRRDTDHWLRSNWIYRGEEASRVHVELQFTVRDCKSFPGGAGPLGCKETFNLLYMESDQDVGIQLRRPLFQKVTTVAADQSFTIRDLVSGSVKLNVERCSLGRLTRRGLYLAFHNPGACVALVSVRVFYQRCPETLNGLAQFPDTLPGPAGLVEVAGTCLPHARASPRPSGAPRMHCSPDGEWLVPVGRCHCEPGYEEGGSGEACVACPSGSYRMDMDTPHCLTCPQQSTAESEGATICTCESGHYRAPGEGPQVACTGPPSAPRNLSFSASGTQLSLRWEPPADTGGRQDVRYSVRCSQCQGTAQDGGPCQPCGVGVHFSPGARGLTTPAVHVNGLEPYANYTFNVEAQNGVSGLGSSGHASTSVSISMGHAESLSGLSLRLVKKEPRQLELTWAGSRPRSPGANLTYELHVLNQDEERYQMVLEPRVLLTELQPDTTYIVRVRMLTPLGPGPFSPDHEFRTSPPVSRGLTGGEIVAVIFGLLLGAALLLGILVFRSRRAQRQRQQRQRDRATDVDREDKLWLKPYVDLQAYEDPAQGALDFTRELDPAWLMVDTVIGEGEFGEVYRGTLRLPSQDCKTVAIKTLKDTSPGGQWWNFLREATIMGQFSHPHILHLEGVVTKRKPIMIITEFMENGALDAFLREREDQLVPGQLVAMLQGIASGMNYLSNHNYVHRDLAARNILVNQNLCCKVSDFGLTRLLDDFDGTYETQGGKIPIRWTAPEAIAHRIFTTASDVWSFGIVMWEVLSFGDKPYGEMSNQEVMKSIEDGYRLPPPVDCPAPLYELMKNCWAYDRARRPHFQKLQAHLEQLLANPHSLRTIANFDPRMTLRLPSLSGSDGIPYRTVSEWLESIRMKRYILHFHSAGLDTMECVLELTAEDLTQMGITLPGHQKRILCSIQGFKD", "settings": "EPHA1, 10 μM", "method": "as §1, §2, §3"}, "[13]": {"target": "kinase named in conditions (Homo sapiens, UniProt P21802)", "settings": "FGFR2, 10 μM", "method": "as §1, §2, §3"}, "[14]": {"target": "kinase named in conditions (Homo sapiens, UniProt P32298)", "settings": "GRK4, 10 μM", "method": "as §1, §2, §3"}, "[15]": {"target": "kinase named in conditions (Homo sapiens, UniProt P42685)", "settings": "FRK (PTK5), 10 μM", "method": "as §1, §2, §3"}, "[16]": {"target": "kinase named in conditions (Homo sapiens, UniProt P43403)", "settings": "ZAP70, 10 μM", "method": "as §1, §2, §3"}, "[17]": {"target": "kinase named in conditions (Homo sapiens, UniProt P52564)", "settings": "MAP2K6 (MKK6), 10 μM", "method": "as §1, §2, §3"}, "[18]": {"target": "kinase named in conditions (Homo sapiens, UniProt P54753)", "settings": "EPHB3, 10 μM", "method": "as §1, §2, §3"}, "[19]": {"target": "kinase named in conditions (Homo sapiens, UniProt P54764)", "settings": "EPHA4, 10 μM", "method": "as §1, §2, §3"}, "[20]": {"target": "kinase named in conditions (Homo sapiens, UniProt Q05397)", "settings": "PTK2 (FAK), 10 μM", "method": "as §1, §2, §3"}, "[21]": {"target": "kinase named in conditions (Homo sapiens, UniProt Q06418)", "settings": "TYRO3 (RSE), 10 μM", "method": "as §1, §2, §3"}, "[22]": {"target": "kinase named in conditions (Homo sapiens, UniProt Q12866)", "sequence (Q12866 21-999)": "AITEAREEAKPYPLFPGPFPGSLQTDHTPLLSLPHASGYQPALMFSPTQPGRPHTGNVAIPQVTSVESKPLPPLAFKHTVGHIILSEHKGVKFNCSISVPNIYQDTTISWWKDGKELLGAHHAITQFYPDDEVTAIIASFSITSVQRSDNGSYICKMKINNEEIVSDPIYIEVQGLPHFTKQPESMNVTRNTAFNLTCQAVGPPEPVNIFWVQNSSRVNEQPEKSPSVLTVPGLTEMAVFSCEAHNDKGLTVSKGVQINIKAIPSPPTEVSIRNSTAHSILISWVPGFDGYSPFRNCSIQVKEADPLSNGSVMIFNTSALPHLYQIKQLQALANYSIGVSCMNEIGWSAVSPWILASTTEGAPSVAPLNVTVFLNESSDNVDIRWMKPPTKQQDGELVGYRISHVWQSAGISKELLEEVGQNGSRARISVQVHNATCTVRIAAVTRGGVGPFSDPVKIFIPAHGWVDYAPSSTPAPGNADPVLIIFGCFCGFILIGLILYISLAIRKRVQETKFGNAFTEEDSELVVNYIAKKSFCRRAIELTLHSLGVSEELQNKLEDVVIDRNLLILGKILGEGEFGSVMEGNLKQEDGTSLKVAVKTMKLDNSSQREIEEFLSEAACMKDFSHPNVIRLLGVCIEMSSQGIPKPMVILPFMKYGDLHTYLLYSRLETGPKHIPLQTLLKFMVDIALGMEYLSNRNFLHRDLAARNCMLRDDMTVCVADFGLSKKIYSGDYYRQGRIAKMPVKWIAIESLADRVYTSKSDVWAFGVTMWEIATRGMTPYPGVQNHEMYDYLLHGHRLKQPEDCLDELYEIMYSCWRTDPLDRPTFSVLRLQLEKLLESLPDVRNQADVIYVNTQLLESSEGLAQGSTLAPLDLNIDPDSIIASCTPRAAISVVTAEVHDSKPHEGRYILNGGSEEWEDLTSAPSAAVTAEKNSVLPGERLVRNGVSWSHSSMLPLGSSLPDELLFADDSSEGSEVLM", "settings": "MERTK (cMER), 10 μM", "method": "as §1, §2, §3"}, "[23]": {"target": "kinase named in conditions (Homo sapiens, UniProt Q13131)", "sequence (Q13131 whole entry)": "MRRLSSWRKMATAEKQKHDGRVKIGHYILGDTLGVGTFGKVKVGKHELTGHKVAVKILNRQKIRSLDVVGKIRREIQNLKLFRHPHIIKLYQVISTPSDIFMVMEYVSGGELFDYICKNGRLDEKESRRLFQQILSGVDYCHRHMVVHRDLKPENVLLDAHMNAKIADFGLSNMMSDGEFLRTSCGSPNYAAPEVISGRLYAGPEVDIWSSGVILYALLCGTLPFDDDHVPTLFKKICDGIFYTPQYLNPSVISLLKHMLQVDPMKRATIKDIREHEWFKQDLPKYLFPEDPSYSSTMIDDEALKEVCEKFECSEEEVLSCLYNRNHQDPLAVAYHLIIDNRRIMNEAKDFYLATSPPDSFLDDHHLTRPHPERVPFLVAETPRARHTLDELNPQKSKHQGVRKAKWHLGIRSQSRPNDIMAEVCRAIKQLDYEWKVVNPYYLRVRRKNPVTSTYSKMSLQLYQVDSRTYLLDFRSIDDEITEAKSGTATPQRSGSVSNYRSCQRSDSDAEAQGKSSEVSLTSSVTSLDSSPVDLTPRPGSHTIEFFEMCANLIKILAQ", "method": "as §1, §2, §3"}, "[24]": {"target": "kinase named in conditions (Homo sapiens, UniProt Q13237)", "settings": "PRKG2 (PKG2), 10 μM", "method": "as §1, §2, §3"}, "[25]": {"target": "kinase named in conditions (Homo sapiens, UniProt Q13557)", "settings": "CAMK2D (CaMKII delta), 10 μM", "method": "as §1, §2, §3"}, "[26]": {"target": "kinase named in conditions (Homo sapiens, UniProt Q13976)", "settings": "PRKG1, 10 μM", "method": "as §1, §2, §3"}, "[27]": {"target": "kinase named in conditions (Homo sapiens, UniProt Q5VT25)", "settings": "CDC42 BPA (MRCKA), 10 μM", "method": "as §1, §2, §3"}, "[28]": {"target": "kinase named in conditions (Homo sapiens, UniProt Q7KZI7)", "settings": "MARK2, 10 μM", "method": "as §1, §2, §3"}, "[29]": {"target": "kinase named in conditions (Homo sapiens, UniProt Q9BUB5)", "sequence (Q9BUB5 whole entry)": "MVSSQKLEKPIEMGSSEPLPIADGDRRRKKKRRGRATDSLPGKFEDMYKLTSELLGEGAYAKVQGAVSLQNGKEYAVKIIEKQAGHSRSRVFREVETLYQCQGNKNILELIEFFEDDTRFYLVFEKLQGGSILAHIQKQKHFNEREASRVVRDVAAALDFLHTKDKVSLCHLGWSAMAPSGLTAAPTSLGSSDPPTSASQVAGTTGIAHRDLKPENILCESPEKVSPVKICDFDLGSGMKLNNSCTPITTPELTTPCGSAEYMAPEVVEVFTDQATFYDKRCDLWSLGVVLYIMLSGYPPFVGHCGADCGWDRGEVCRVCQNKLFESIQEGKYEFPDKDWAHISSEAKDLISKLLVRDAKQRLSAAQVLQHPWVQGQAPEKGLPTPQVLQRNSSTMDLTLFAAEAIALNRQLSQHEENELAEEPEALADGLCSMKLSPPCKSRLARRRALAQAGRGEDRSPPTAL", "settings": "MKNK1 (MNK1), 10 μM", "method": "as §1, §2, §3"}, "[30]": {"target": "kinase named in conditions (Homo sapiens, UniProt Q9HC98)", "settings": "NEK6, 10 μM", "method": "as §1, §2, §3"}, "[31]": {"target": "kinase named in conditions (Homo sapiens, UniProt Q9NQU5)", "settings": "PAK6, 10 μM", "method": "as §1, §2, §3"}, "[32]": {"target": "kinase named in conditions (Homo sapiens, UniProt Q9UBS0)", "settings": "RPS6KB2 (p70S6Kb), 10 μM", "method": "as §1, §2, §3"}, "[33]": {"target": "kinase named in conditions (Homo sapiens, UniProt Q9Y463)", "settings": "DYRK1B, 10 μM", "method": "as §1, §2, §3"}, "[34]": {"target": "kinase named in conditions (Homo sapiens, UniProt Q9Y6M4)", "settings": "CSNK1G3 (CK1 gamma 3), 10 μM", "method": "as §1, §2, §3"}},
  "data": [
    {"smiles": "FC(F)(F)c1c(Cl)ccc(-n2ccnn2)c1Cl", "note": "[8l, 1-(2,4-Dichloro-3-(trifluoromethyl)phenyl)-1H-1,2,3-triazole]", "values": [
      {"measurement": "inhibition at 10 µM", "setting": "[1]", "value": 5, "unit": "%"},
      {"measurement": "inhibition at 10 µM", "setting": "[2]", "value": 1, "unit": "%"},
      {"measurement": "inhibition at 10 µM", "setting": "[3]", "value": -5, "unit": "%"},
      {"measurement": "inhibition at 10 µM", "setting": "[4]", "value": -8, "unit": "%"},
      {"measurement": "inhibition at 10 µM", "setting": "[5]", "value": 13, "unit": "%"},
      {"measurement": "inhibition at 10 µM", "setting": "[6]", "value": 5, "unit": "%"},
      {"measurement": "inhibition at 10 µM", "setting": "[7]", "value": 2, "unit": "%"},
      {"measurement": "inhibition at 10 µM", "setting": "[8]", "value": 0, "unit": "%"},
      {"measurement": "inhibition at 10 µM", "setting": "[9]", "value": 10, "unit": "%"},
      {"measurement": "inhibition at 10 µM", "setting": "[10]", "value": -3, "unit": "%"},
      {"measurement": "inhibition at 10 µM", "setting": "[11]", "value": 4, "unit": "%"},
      {"measurement": "inhibition at 10 µM", "setting": "[12]", "value": 4, "unit": "%"},
      {"measurement": "inhibition at 10 µM", "setting": "[13]", "value": 11, "unit": "%"},
      {"measurement": "inhibition at 10 µM", "setting": "[14]", "value": -3, "unit": "%"},
      {"measurement": "inhibition at 10 µM", "setting": "[15]", "value": 1, "unit": "%"},
      {"measurement": "inhibition at 10 µM", "setting": "[16]", "value": 24, "unit": "%"},
      {"measurement": "inhibition at 10 µM", "setting": "[17]", "value": 3, "unit": "%"},
      {"measurement": "inhibition at 10 µM", "setting": "[18]", "value": -8, "unit": "%"},
      {"measurement": "inhibition at 10 µM", "setting": "[19]", "value": 1, "unit": "%"},
      {"measurement": "inhibition at 10 µM", "setting": "[20]", "value": 4, "unit": "%"},
      {"measurement": "inhibition at 10 µM", "setting": "[21]", "value": 5, "unit": "%"},
      {"measurement": "inhibition at 10 µM", "setting": "[22]", "value": 5, "unit": "%"},
      {"measurement": "inhibition at 10 µM", "setting": "[23]; AMPK (A1/B2/G2), 10 μM", "value": 6, "unit": "%"},
      {"measurement": "inhibition at 10 µM", "setting": "[23]; AMPK (A1/B2/G3), 10 μM", "value": 6, "unit": "%"},
      {"measurement": "inhibition at 10 µM", "setting": "[23]; AMPK A1/B1/G1, 10 μM", "value": 14, "unit": "%"},
      {"measurement": "inhibition at 10 µM", "setting": "[24]", "value": 8, "unit": "%"},
      {"measurement": "inhibition at 10 µM", "setting": "[25]", "value": 7, "unit": "%"},
      {"measurement": "inhibition at 10 µM", "setting": "[26]", "value": 15, "unit": "%"},
      {"measurement": "inhibition at 10 µM", "setting": "[27]", "value": -3, "unit": "%"},
      {"measurement": "inhibition at 10 µM", "setting": "[28]", "value": -7, "unit": "%"},
      {"measurement": "inhibition at 10 µM", "setting": "[29]", "value": 0, "unit": "%"},
      {"measurement": "inhibition at 10 µM", "setting": "[30]", "value": 12, "unit": "%"},
      {"measurement": "inhibition at 10 µM", "setting": "[31]", "value": 15, "unit": "%"},
      {"measurement": "inhibition at 10 µM", "setting": "[32]", "value": 4, "unit": "%"},
      {"measurement": "inhibition at 10 µM", "setting": "[33]", "value": 16, "unit": "%"},
      {"measurement": "inhibition at 10 µM", "setting": "[34]", "value": 0, "unit": "%"}
    ]}
  ]
}
